Results from patent US20240218022A1, “ANTI-VISTA MACROCYCLIC PEPTIDES AND COMPOSITIONS” (BRISTOL-MYERS SQUIBB COMPANY, priority 2022, published 2024).
Starred links: 1 amine or outer side, 2 acyl side, 3 side chain; linkers in the order of their positions; H or OH if unused. Positions of bridges follow the written chain, without caps; N, C: chain ends. Non-standard residues stand in square brackets, D forms with d. Residues, ends and D or L forms follow the SMILES beside them. ξ: configuration not given here. Phe(3-CF3) = N[C@@H](Cc1cccc(C(F)(F)F)c1)C(=O)O; Phe(4-CONH2) = NC(=O)c1ccc(C[C@H](N)C(=O)O)cc1; Phe(3-Cl) = N[C@@H](Cc1cccc(Cl)c1)C(=O)O; Phe(3-Me) = Cc1cccc(C[C@H](N)C(=O)O)c1; γGlu = O=C(O)[C@H](CCC(=O)[*:2])N[*:1]; 2Nal = N[C@@H](Cc1ccc2ccccc2c1)C(=O)O; NMeL = CN[C@@H](CC(C)C)C(=O)O; Ahp(2) = CCCCC[C@H](N)C(=O)O; NMeNle = CCCC[C@H](NC)C(=O)O; Tle = CC(C)(C)[C@H](N)C(=O)O; NHexGly = CCCCCCNCC(=O)O; NMeA = CN[C@@H](C)C(=O)O; Nle = CCCC[C@H](N)C(=O)O; Orn = NCCC[C@H](N)C(=O)O; Aun = NCCCCCCCCCCC(=O)O; ξD = NC(CC(=O)O)C(=O)O; AEEA = NCCOCCOCC(=O)O

Biological target: T1, mouse VISTA (mVISTA) (Mus musculus, UniProt Q9D659)
T1 construct: expressed in transfected cells; host or cells: Human embryonic kidney 293T cells
T1 sequence (Q9D659 33-308): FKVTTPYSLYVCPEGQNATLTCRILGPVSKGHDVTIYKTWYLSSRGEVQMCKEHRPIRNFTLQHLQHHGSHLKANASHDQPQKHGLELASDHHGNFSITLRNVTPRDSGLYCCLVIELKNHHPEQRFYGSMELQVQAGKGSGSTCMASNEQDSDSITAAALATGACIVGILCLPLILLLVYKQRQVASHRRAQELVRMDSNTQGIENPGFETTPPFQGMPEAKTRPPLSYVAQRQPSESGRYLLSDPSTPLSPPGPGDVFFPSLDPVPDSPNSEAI
Assay: Cell-Based Binding High-Content Assay For mVISTA (HC CBA mVISTA)
Settings: 293T cells expressing mouse VISTA; competition with biotinylated peptide (2 nM); read-out: CBA mVISTA IC50
How it was run: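 This high-content binding assay uses HEK293T cells expressing murine VISTA, measuring displacement of 2 nM biotinylated peptide by fluorescent streptavidin imaging. IC50 values come from four-parameter logistic fitting.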

Structure (SMILES) | IC50
CCCCCCN1CC(=O)N[C@@H](Cc2ccc(O)cc2)C(=O)N[C@@H](CCCCC)C(=O)NCC(=O)N[C@@H](CCCNC(=N)N)C(=O)N(C)[C@@H](CCCC)C(=O)N[C@@H](CCCCC)C(=O)N2CCC[C@H]2C(=O)N[C@@H](C(C)C)C(=O)N[C@@H](CO)C(=O)N[C@H](C(=O)NCC(N)=O)CSCC(=O)N[C@@H](Cc2ccccc2)C(=O)N[C@@H](Cc2ccc(O)cc2)C(=O)N[C@@H](CC(=O)O)C1=O [Example 1079] ({CH2CO}-FYD[NHexGly]Y[Ahp(2)]GR[NMeNle][Ahp(2)]PVSCG-NH2; thioether N-14) | 24.6 nM

Same assay, conditions: cell-based binding high-content assay, mVISTA; the 16th table; read-out: HC CBA mVISTA IC50

Structure (SMILES) | IC50
CCCCCCN1CC(=O)N[C@@H](Cc2ccc(O)cc2)C(=O)N[C@@H](CCCC)C(=O)N[C@@H](CC(N)=O)C(=O)N[C@@H](CCCNC(=N)N)C(=O)N[C@@H](CC(C)C)C(=O)N[C@@H](CCCCC)C(=O)N2CCC[C@H]2C(=O)N[C@@H](C(C)C)C(=O)N[C@@H](CO)C(=O)N[C@H](C(=O)NCC(=O)O)CSCC(=O)N[C@@H](Cc2ccc3ccccc3c2)C(=O)N[C@@H](Cc2ccc(O)cc2)C(=O)N[C@@H](CC(=O)O)C1=O [Ex 1272] ({CH2CO}-[2Nal]YD[NHexGly]Y[Nle]NRL[Ahp(2)]PVSCG-OH; thioether N-14) | 2.8 nM

Same assay, conditions: read-out: HC CBA mVISTA IC50

Structure (SMILES) | IC50
CCCCCCN1CC(=O)N[C@@H](Cc2ccc(O)cc2)C(=O)N[C@@H](CCCC)C(=O)N[C@@H](CC(N)=O)C(=O)N[C@@H](CCCNC(=N)N)C(=O)N(C)[C@@H](C)C(=O)N[C@@H](CCCCC)C(=O)N2CCC[C@H]2C(=O)N[C@@H](C(C)(C)C)C(=O)N[C@@H](CO)C(=O)N[C@H](C(=O)NCCOCCOCC(=O)N[C@@H](CCC(=O)NCCOCCOCC(=O)NCCCCCCCCCCC(=O)O)C(=O)O)CSCC(=O)N[C@@H](Cc2ccccc2)C(=O)N[C@@H](Cc2c[nH]c3ccccc23)C(=O)N[C@@H](CC(=O)O)C1=O [compound 2247] ({CH2CO}-FWD[NHexGly]Y[Nle]NR[NMeA][Ahp(2)]P[Tle]SC[AEEA][γGlu][AEEA][Aun]-OH; thioether N-14) | 29.6 nM
CCCCCCN1CC(=O)N[C@@H](Cc2ccc(O)cc2)C(=O)N[C@@H](CCCCN)C(=O)N[C@@H](CC(N)=O)C(=O)N[C@@H](CCCN)C(=O)N(C)[C@@H](CCCC)C(=O)N[C@@H](CCCCC)C(=O)N2CCC[C@H]2C(=O)N[C@@H](C(C)(C)C)C(=O)N[C@@H](CO)C(=O)N[C@H](C(=O)N[C@@H](CCC(=O)NCCCCCCCCCCC(=O)O)C(=O)O)CSCC(=O)N[C@@H](Cc2ccccc2)C(=O)N[C@@H](Cc2ccc(O)cc2)C(=O)N[C@@H](CC(=O)O)C1=O [Example 2139] ({CH2CO}-FYD[NHexGly]YKN[Orn][NMeNle][Ahp(2)]P[Tle]SC[γGlu][Aun]-OH; thioether N-14) | 45.7 nM
CCCCCCN1CC(=O)N[C@@H](Cc2ccc(O)cc2)C(=O)N[C@@H](CC(C)C)C(=O)N[C@@H](CC(N)=O)C(=O)N[C@@H](CCCNC(=N)N)C(=O)N(C)[C@@H](CCCC)C(=O)N[C@@H](CCCCC)C(=O)N2CCC[C@H]2C(=O)N[C@@H](C(C)(C)C)C(=O)N[C@@H](CO)C(=O)N[C@H](C(=O)NCC(N)=O)CSCC(=O)N[C@@H](Cc2ccc(C(N)=O)cc2)C(=O)N[C@@H](Cc2ccc(O)cc2)C(=O)N[C@@H](CC(=O)O)C1=O [compound 1212] ({CH2CO}-[Phe(4-CONH2)]YD[NHexGly]YLNR[NMeNle][Ahp(2)]P[Tle]SCG-NH2; thioether N-14) | 13.1 nM
CCCCCCN1CC(=O)N[C@@H](Cc2ccc(O)cc2)C(=O)N[C@@H](CC(C)C)C(=O)N[C@@H](CC(N)=O)C(=O)N[C@@H](CCCNC(=N)N)C(=O)N(C)[C@@H](CC(C)C)C(=O)N[C@@H](CCCCC)C(=O)N2CCC[C@H]2C(=O)N[C@@H](C(C)(C)C)C(=O)N[C@@H](CC(=O)O)C(=O)N[C@H](C(=O)NCCOCCOCC(=O)N[C@@H](CCC(=O)NCCOCCOCC(=O)NCCCCCCCCCCC(=O)O)C(=O)O)CSCC(=O)N[C@@H](Cc2ccccc2)C(=O)N[C@@H](Cc2ccc(O)cc2)C(=O)N[C@@H](CC(=O)O)C1=O [compound 2267] ({CH2CO}-FYD[NHexGly]YLNR[NMeL][Ahp(2)]P[Tle]DC[AEEA][γGlu][AEEA][Aun]-OH; thioether N-14) | 28.9 nM
CCCCCCN1CC(=O)N[C@@H](Cc2ccc(O)cc2)C(=O)N[C@@H](CC(C)C)C(=O)N[C@@H](CC(N)=O)C(=O)N[C@@H](CCCNC(=N)N)C(=O)N[C@@H](CC(C)C)C(=O)N[C@@H](CCCCC)C(=O)N2CCC[C@H]2C(=O)N[C@@H](C(C)(C)C)C(=O)N[C@@H](CC(=O)O)C(=O)N[C@H](C(=O)NCCOCCOCC(=O)N[C@@H](CCC(=O)NCCOCCOCC(=O)NCCCCCCCCCCC(=O)O)C(=O)O)CSCC(=O)N[C@@H](Cc2ccccc2)C(=O)N[C@@H](Cc2c[nH]c3ccccc23)C(=O)N[C@@H](CC(=O)O)C1=O [compound 2236] ({CH2CO}-FWD[NHexGly]YLNRL[Ahp(2)]P[Tle]DC[AEEA][γGlu][AEEA][Aun]-OH; thioether N-14) | 23.7 nM
CCCCCCN1CC(=O)N[C@@H](Cc2ccc(O)cc2)C(=O)N[C@@H](CC(C)C)C(=O)N[C@@H](CC(N)=O)C(=O)N[C@@H](CCCNC(=N)N)C(=O)N[C@@H](CC(C)C)C(=O)N[C@@H](CCCCC)C(=O)N2CCC[C@H]2C(=O)N[C@@H](C(C)C)C(=O)N[C@@H](C(C)C)C(=O)N[C@H](C(=O)NCCOCCOCC(=O)N[C@@H](CCC(=O)NCCOCCOCC(=O)NCCCCCCCCCCC(=O)O)C(=O)O)CSCC(=O)N[C@@H](Cc2ccccc2)C(=O)N[C@@H](Cc2cccc(C)c2)C(=O)N[C@@H](CC(=O)O)C1=O [compound 2221] ({CH2CO}-F[Phe(3-Me)]D[NHexGly]YLNRL[Ahp(2)]PVVC[AEEA][γGlu][AEEA][Aun]-OH; thioether N-14) | 33.5 nM
CCCCCCN1CC(=O)N[C@@H](Cc2ccc(O)cc2)C(=O)N[C@@H](CC(C)C)C(=O)N[C@@H](CC(N)=O)C(=O)N[C@@H](CCCNC(=N)N)C(=O)N[C@@H](CC(C)C)C(=O)N[C@@H](CCCCC)C(=O)N2CCC[C@H]2C(=O)N[C@@H](C(C)(C)C)C(=O)N[C@@H](CO)C(=O)N[C@H](C(=O)NCCOCCOCC(=O)N[C@@H](CCC(=O)NCCOCCOCC(=O)NCCCCCCCCCCC(=O)O)C(=O)O)CSCC(=O)N[C@@H](Cc2ccccc2)C(=O)N[C@@H](Cc2c[nH]c3ccccc23)C(=O)N[C@@H](CC(=O)O)C1=O [compound 2230] ({CH2CO}-FWD[NHexGly]YLNRL[Ahp(2)]P[Tle]SC[AEEA][γGlu][AEEA][Aun]-OH; thioether N-14) | 28.4 nM
CCCCCCN1CC(=O)N[C@@H](Cc2ccc(O)cc2)C(=O)N[C@@H](CCCC)C(=O)N[C@@H](CC(N)=O)C(=O)N[C@@H](CCCNC(=N)N)C(=O)N[C@@H](CC(C)C)C(=O)N[C@@H](CCCCC)C(=O)N2CCC[C@H]2C(=O)N[C@@H](C(C)C)C(=O)N[C@@H](CC(=O)O)C(=O)N[C@H](C(=O)NCC(=O)O)CSCC(=O)N[C@@H](Cc2ccccc2)C(=O)N[C@@H](Cc2cccc(C(F)(F)F)c2)C(=O)N[C@@H](CC(=O)O)C1=O [compound 1332] ({CH2CO}-F[Phe(3-CF3)]D[NHexGly]Y[Nle]NRL[Ahp(2)]PVDCG-OH; thioether N-14) | 12.1 nM
CCCCCCN1CC(=O)N[C@@H](Cc2ccc(O)cc2)C(=O)N[C@@H](CC(C)C)C(=O)N[C@@H](CC(N)=O)C(=O)N[C@@H](CCCNC(=N)N)C(=O)N(C)[C@@H](CCCC)C(=O)N[C@@H](CCCCC)C(=O)N2CCC[C@H]2C(=O)N[C@@H](C(C)(C)C)C(=O)N[C@@H](CO)C(=O)N[C@H](C(=O)NCCOCCOCC(=O)N[C@@H](CCC(=O)NCCOCCOCC(=O)NCCCCCCCCCCC(=O)O)C(=O)O)CSCC(=O)N[C@@H](Cc2ccccc2)C(=O)N[C@@H](Cc2ccc(O)cc2)C(=O)N[C@@H](CC(=O)O)C1=O [compound 2260] ({CH2CO}-FYD[NHexGly]YLNR[NMeNle][Ahp(2)]P[Tle]SC[AEEA][γGlu][AEEA][Aun]-OH; thioether N-14) | 16 nM
CCCCCCN1CC(=O)N[C@@H](Cc2ccc(O)cc2)C(=O)N[C@@H](CC(C)C)C(=O)N[C@@H](CC(N)=O)C(=O)N[C@@H](CCCNC(=N)N)C(=O)N(C)[C@@H](CCCC)C(=O)N[C@@H](CCCCC)C(=O)N2CCC[C@H]2C(=O)N[C@@H](C(C)(C)C)C(=O)N[C@@H](CO)C(=O)N[C@H](C(=O)NCC(N)=O)CSCC(=O)N[C@@H](Cc2cccc(Cl)c2)C(=O)N[C@@H](Cc2ccc(O)cc2)C(=O)N[C@@H](CC(=O)O)C1=O [compound 1209] ({CH2CO}-[Phe(3-Cl)]YD[NHexGly]YLNR[NMeNle][Ahp(2)]P[Tle]SCG-NH2; thioether N-14) | 33.2 nM
CCCCCCN1CC(=O)N[C@@H](Cc2ccc(O)cc2)C(=O)N[C@@H](CCCC)C(=O)N[C@@H](CC(=O)O)C(=O)N[C@@H](CCCN)C(=O)N(C)[C@@H](CCCC)C(=O)N[C@@H](CCCCC)C(=O)N2CCC[C@H]2C(=O)N[C@@H](C(C)C)C(=O)N[C@@H](CC(=O)O)C(=O)N[C@H](C(=O)NC(CC(=O)O)C(N)=O)CSCC(=O)N[C@@H](Cc2ccccc2)C(=O)N[C@@H](Cc2cccc(C)c2)C(=O)N[C@@H](CC(=O)O)C1=O (some centres unmarked) [compound 1343] ({CH2CO}-F[Phe(3-Me)]D[NHexGly]Y[Nle]D[Orn][NMeNle][Ahp(2)]PVDC[ξD]-NH2; thioether N-14) | 17.8 nM

Same assay, conditions: the 20th table, scaffold drawing 23; read-out: HC CBA mVISTA IC50

Structure (SMILES) | IC50
CCCCCCN1CC(=O)N[C@@H](Cc2ccc(O)cc2)C(=O)N[C@@H](C(C)C)C(=O)NCC(=O)N[C@@H](CCCNC(=N)N)C(=O)N[C@@H](CC(C)C)C(=O)N[C@@H](CCCCC)C(=O)N2CCC[C@H]2C(=O)N[C@@H](C(C)C)C(=O)N[C@@H](CC(=O)O)C(=O)N[C@H](C(=O)NCC(N)=O)CSCC(=O)N[C@@H](Cc2ccc(OC)cc2)C(=O)N[C@@H](Cc2ccc(O)cc2)C(=O)N[C@@H](CC(=O)O)C1=O [compound 1477] ({CH2CO}-Y(Me)YD[NHexGly]YVGRL[Ahp(2)]PVDCG-NH2; thioether N-14) | 49.2 nM
